Reference: patent publication US20070037882A1, “Remedy for cerebral neurodegenerative diseases using ppar agonist” (Astellas Pharma Inc., priority 2003, published 2007)

Tests used:
[1] = tested on: SH-SY5Y cells; assay: MPP+-induced cellular death model, dead cells by LDH assay; assay type: cell-based, human; settings: for LDH release A490: MPP+ + (3 mM), 24 h
Procedure: (§1) SH-SY5Y cells were spread on a 96-well plate (70,000 cell/well in 100 μl DMEM low glucose 10% fetal bovine serum) for overnight culturing, from which the culture medium was removed with an aspirator. Then, DMEM without serum was added at 50 μl/well. […] 2 hours later, DMEM without serum containing 18 mM MPP^+ was added at 20 μl/well. (MPP^+ to a final 3 mM concentration) (For a control, DMEM without serum alone was added.)
24 hours later, the dead cell count was calculated on the basis of the LDH activity assayed with a cytotoxicity detection kit (Roche). […] The results reveal that the PPARδ agonists are effective on the suppression of MPP^+-induced cellular death.

[2] = tested on: murine MPTP Parkinson's model; assay: Murine MPTP Parkinson's model, striate body DA and metabolites; assay type: in vivo, mice; settings: for DA content per wet weight of striate body / DOPAC content per wet weight of striate body / HVA content per wet weight of striate body: MPTP +, 4 days after MPTP
[3] = tested on: SH-SY5Y cells; assay: Staurosporine-induced cellular death model, viable cells by MTT assay; assay type: cell-based, human; settings: for MTT assay A490: staurosporine + (150 nM), 24 h
Procedure: Cellular death was induced by adding a protein kinase inhibitor staurosporine to a neuroblastoma SH-SY5Y to examine the effect of PPARδ agonists on the suppression of cellular death. SH-SY5Y cells were plated on a 96-well plate (70,000 cell/well in 100 μl DMEM low glucose 10% fetal bovine serum) for overnight culturing, from which the culture medium was removed with an aspirator. Then, DMEM without serum was added at 50 μl/well. […] 2 hours later, DMEM without serum containing 900 nM staurosporine was added at 20 μl/well. (Staurosporine to a final 150 nM concentration) (For a control, DMEM without serum alone was added.) 24 hours later, the viable cell count was calculated from the absorbance at 490 nm, using Celltiter 96 Aqueous one solution cell proliferation assay kit (Promega).

[4] = tested on: SH-SY5Y cells; assay: Staurosporine-induced cellular death model, dead cells by LDH assay; assay type: cell-based, human; settings: staurosporine + (150 nM), 24 h
Procedure: SH-SY5Y cells were plated on a 96-well plate (70,000 cell/well in 100 μl DMEM low glucose 10% fetal bovine serum) for overnight culturing, from which the culture medium was removed with an aspirator. Then, DMEM without serum was added at 50 μl/well. […] 2 hours later, DMEM without serum containing 900 nM staurosporine was added at 20 μl/well. (Staurosporine to a final 150 nM concentration) (For a control, DMEM without serum alone was added.) 24 hours later, LDH activity was assayed by measuring the absorbance at 490 nm, using Cytotoxicity detection kit (Roche). […] An apparent correlation is observed with the results of viable cells as determined by the MTT assay in Example 9.

[5] = tested on: SH-SY5Y cells; assay: Staurosporine-induced cellular death model, apoptosis by caspase-3/7 assay; assay type: cell-based, human; settings: for Caspase 3/7 activity: staurosporine + (150 nM), 3 h
Procedure: as §1, with “900 nM staurosporine” for “18 mM MPP^+”, “(Staurosporine” for “(MPP^+”, “150 nM” for “3 mM”, “added).” for “added.)”
3 hours later, the caspase-3/7 activity was assayed with Apo-One homogenous Caspase-3/7 assay kit (Promega).

[6] = tested on: SH-SY5Y cells; assay: Thapsigargin-induced cellular death model, viable cells by MTT assay; assay type: cell-based, human; settings: for MTT assay A490: thapsigargin + (100 nM), 24 h
Procedure: SH-SY5Y cells were plated on a 96-well plate (70,000 cell/well in 100 μl DMEM low glucose 10% fetal bovine serum) for overnight culturing, from which the culture medium was removed with an aspirator. Then, DMEM without serum was added at 50 μl/well. […] 2 hours later, DMEM without serum containing 600 nM thapsigargin was added at 20 μl/well. (Thapsigargin to a final 100 nM concentration) (For a control, DMEM without serum alone was added.) 24 hours later, the viable cell count was calculated from the absorbance at 490 nm, using Celltiter 96 Aqueous one solution cell proliferaion assay kit (Promega).

[7] = tested on: SH-SY5Y cells; assay: MPP+-induced cellular death model, viable cells by MTT assay; assay type: cell-based, human; settings: for MTT assay A490: MPP+ + (3 mM), 24 h
Procedure: as §1, with “added).” for “added.)”
24 hours later, cell growth activity was assayed by measuring the absorbance at 490 nm, using Celltiter 96 aqueous one solution cell proliferation assay kit (Promega).
In the assay system, MPP^+ as an MPTP metabolite was added to a neuroblastoma SH-SY5Y, to inhibit the mitochondrial complex I to cause the generation of active oxygen and the inhibition of ATP synthesis, to induce cellular death. It is said that in the murine MPTP model commonly used as a model of Parkinson's disease, MPTP passing through the blood brain barrier is metabolized into MPP^+, which exerts toxicity specific to murine nigra cell to induce nerve detachment. Therefore, the assay system can be said as an in vitro assay system mimicking the murine MPTP model.

[8] = tested on: SH-SY5Y cells; assay: Thapsigargin-induced cellular death model, apoptosis by caspase-3/7 assay; assay type: cell-based, human; settings: for Caspase 3/7 activity: thapsigargin + (100 nM), 3 h

Cc1cc(SCc2sc(-c3ccc(C(F)(F)F)cc3)nc2C)ccc1OCC(=O)O [GW501516]
LDH release A490 ([1]; compound 0.1 μM): 0.3633 ± 0.0153
LDH release A490 ([1]; compound 1 μM): 0.3222 ± 0.0207
LDH release A490 ([1]; compound 10 μM): 0.2981 ± 0.0154
LDH release A490 ([1]; compound 100 μM): 0.7969 ± 0.0251
cytotoxicity (in words) ([1]; concentration of 100 μM, MPP+ model): exerted cytotoxicity
DA content per wet weight of striate body ([2]; 12 μg/head/day): 7.41 ± 1.27 ng/mg tissue
DOPAC content per wet weight of striate body ([2]; 12 μg/head/day): 0.39 ± 0.06 ng/mg tissues
HVA content per wet weight of striate body ([2]; 12 μg/head/day): 0.82 ± 0.08 ng/mg tissue
DA content per wet weight of striate body ([2]; 120 μg/head/day): 8.98 ± 1.20 ng/mg tissue
DOPAC content per wet weight of striate body ([2]; 120 μg/head/day): 0.44 ± 0.04 ng/mg tissues
HVA content per wet weight of striate body ([2]; 120 μg/head/day): 0.90 ± 0.05 ng/mg tissue
action of suppressing the decrease of the contents of DA, DOPAC and HVA (in words) ([2]; any of the doses (12 or 120 μg/head/day)): greatly observed
suppression of staurosporine-induced cellular death (in words) ([3]; SH-SY5Y, staurosporine): suppression of staurosporine-induced cellular death in a concentration-dependent manner
MTT assay A490 ([3]; compound 0.1 μM): 0.5179 ± 0.0140
MTT assay A490 ([3]; compound 1 μM): 0.5367 ± 0.0149
MTT assay A490 ([3]; compound 10 μM): 0.5860 ± 0.0086
LDH release A490 ([4]; compound 0.1 μM): 0.5430 ± 0.0264
LDH release A490 ([4]; compound 1 μM): 0.5201 ± 0.0313
LDH release A490 ([4]; compound 10 μM): 0.4025 ± 0.0188
suppression of caspase-3/7 activity (in words) ([5]; SH-SY5Y, staurosporine): suppress the activity of caspase-3/7
Caspase 3/7 activity ([5]; compound 0.1 μM): 586295 ± 18787 RFLU
Caspase 3/7 activity ([5]; compound 1 μM): 463943 ± 12110 RFLU
Caspase 3/7 activity ([5]; compound 10 μM): 420844 ± 13962 RFLU
suppression of thapsigargin-induced cellular death (in words) ([6]; SH-SY5Y, thapsigargin): suppressed cellular death induced by thapsigargin (TG) in a concentration-dependent manner
MTT assay A490 ([6]; compound 0.1 μM): 0.2978 ± 0.0096
MTT assay A490 ([6]; compound 1 μM): 0.3150 ± 0.0135
MTT assay A490 ([6]; compound 10 μM): 0.3478 ± 0.0110
MTT assay A490 ([6]; compound 100 μM): 0.2950 ± 0.0033
cellular toxicity (in words) ([6]; concentration of 100 μM, thapsigargin model): cellular toxicity of GW501516 can be observed
suppression of MPP+-induced cellular death (in words) ([7]; SH-SY5Y, MPP+): suppress cellular death induced by MPP^+ in a concentration-dependent manner
MTT assay A490 ([7]; compound 0.1 μM): 0.3361 ± 0.0073
MTT assay A490 ([7]; compound 1 μM): 0.3926 ± 0.0090
MTT assay A490 ([7]; compound 10 μM): 0.3814 ± 0.0156
MTT assay A490 ([7]; compound 100 μM): 0.2990 ± 0.0144
suppression of caspase-3/7 activity (in words) ([8]; SH-SY5Y, thapsigargin): suppress the activity of caspase-3/7
Caspase 3/7 activity ([8]; compound 1 μM): 237165 ± 5248 RFLU
Caspase 3/7 activity ([8]; compound 10 μM): 125951 ± 6465 RFLU
Caspase 3/7 activity ([8]; compound 100 μM): 421972 ± 21782 RFLU
